Data set [1] in a line: Body weight and general condition of U87 tumor-bearing nude mice during administration. The format is in vivo, Balb/c nude mice. How it is done: (§1) The general condition of the animals and the time of tumor occurrence were recorded daily during the experiment, a long diameter and a short diameter of tumors in the mice were recorded daily, and a tumor volume was calculated according to a formula: long diameter×(short diameter)^2×0.5236, and a body weight of the animals were measured every 3 days. After 18 days of administration, anesthesia was performed with chloral hydrate, and eyeballs were removed for blood collection. The mice were sacrificed, tumors, hearts, livers, spleens, lungs, kidneys, thymuses, whole brains, and intestines were rapidly isolated, blood stains were washed away with ice saline, the tumors, hearts, livers, spleens, lungs, kidneys, thymuses, whole brains, and intestines were wiped to be dry with filter paper, whether there were lesions in internal organs of the animals were observed, and the tumors, hearts, livers, spleens, lungs, kidneys, thymuses, whole brains, and intestines were weighed. A portion of tumor tissue was taken and stored in liquid nitrogen for RNA and protein extraction. Another portion of tumor tissue was placed in a tissue fixative solution for fixation. Distribution of the Se content in brain tissue was detected by Inductively coupled plasma-Mass Spectrometry (ICP-MS).

For data set [2], the system named is U87 brain glioma subcutaneous model. In words: Administration by injection (intraperitoneal) experiment of U87 brain glioma subcutaneous model in Balb/c nude mice. In kind it is in vivo.
From the text: After 2 days of animal acclimation, qualified animals were retained and randomized into 5 groups, with 6 animals in each group of a control group, a TMZ group, and a BS group. There were 5 animals in each group of the BS+TMZ treatment group and the BS+TMZ prevention group. Mice in the BS group were inoculated subcutaneously in right axillas with U87 cells at 2×10^6/mouse. Administration was started to be performed 14 days after inoculation, which was day 0 of treatment. Administration was performed for a total of 18 days.
A drug treatment regimen was as follows: Blank control group (0.9% NaCl, i.p., q.d.); TMZ group (10 mg/kg, i.p., qd.); BS group (30 mg/kg, i.p., q.d.); BS+TMZ treatment group (10 mg/kg of TMZ, i.p., qd., and 90 mg/kg of BS, i.g., q.d.); BS+TMZ prevention group (10 mg/kg of TMZ, i.p., qd., and 90 mg/kg of BS, i.g., q.d.). […] were injected into tail veins.
as §1
Female six-week-old Balb/c Nude mice were selected to establish an animal model and inoculated subcutaneously with U87 human-derived glioma cells at 2×10^6/mouse. Administration was started to be performed on day 14 after inoculation, and was continued to be performed for 18 days.
To compare the difference in efficacy between oral gavage administration and intraperitoneal injection administration, the control group, the TMZ group (10 mg/Kg) and the BS group (30 mg/Kg) were administered intraperitoneally once a day in this round of experiment. The mice in the control group were given 0.9% NaCl.
To compare the therapeutic efficacy and preventive efficacy of the combined application of BS and TMZ, combined administration groups were set in this round of experiment: a BS+TMZ treatment group (90 mg/Kg of BS&10 mg/Kg of TMZ) and a BS+TMZ prevention group (90 mg/Kg of B S& 10 mg/Kg of TMZ). The B S+TMZ treatment group was abbreviated as a BS+TMZ (A) group, and tumors with a volume of more than 20 mm^3 were normally formed in the mice on day 14 after U87 inoculation, and the administration was started to be performed to observe the efficacy of the combined use on inhibiting tumor proliferation. The BS+TMZ prevention group is abbreviated as a BS+TMZ (B) group, and tumors with a volume of less than 20 mm^3 were formed in the mice on day 14 after U87 inoculation, and the administration was started to observe the efficacy of the combined use on the prevention of tumor formation. The mice in the combined groups were administered by single daily oral gavage. The start time of administration was Day 1, a second day of administration was Day 2, and so on.

The test system of data set [3] is high-grade astrocytoma in human spinal cord. Nature of the data set: Subcutaneous patient-derived xenograft (PDX) mouse model of high-grade astrocytoma in human spinal cord. In kind it is in vivo, NPG mice. Particulars: for tumor sizes at the end of the experiment: no unit at the values (tumor volume formula in mm^3), in mm³; for tumor volume inhibition rate: end of experiment. How it is done:
• 1) Grouping of animals: the animals were subcutaneously inoculated with tumor tissue pieces, and after tumors were formed in the animals, the animals were grouped based on a principle of a similar mean tumor volume; • 2) Mode of administration: intraperitoneal injection of BS and TMZ (i.p., q.d.×17 days); • 3) Detection indexes: mouse body weight and subcutaneous tumor volume.
BS injections, with a drug content being 30 mg of BS and 90 mg of BS; and 1 mg of TMZ was weighed and dissolved in 1 ml of 0.5% CMC-Na and the obtained solution was uniformly dispersed by an ultrasound-assisted manner to obtain a TMZ drug solution, which was prepared immediately before use each time.
• Animal species: NPG mice, Animal grade: SPF grade, and Sex and number: female, 32 • Animal weight range: 20-25 g, Animal age range: 5-6 weeks old, and Animal source: Beijing Vitalstar Biotechnology Co., Ltd.
The animals were randomly divided into four groups according to Table 5, with 8 animals in each group of a control group, a BSL group, a BSH group and a TMZ group.
Tumor masses (2-3 mm^3) of high-grade astrocytoma in a human spinal cord were prepared and inoculated in right axillas of NPG mice, and after inoculation, a mouse status was routinely observed and the tumor size was measured. Screening was performed according to the tumor volume, animals with a tumor volume of 450 mm^3 were selected for the experiment, and those with an excessive tumor volume and no tumor formation were not selected. A total of 32 suitable tumor-bearing animals were screened for the experiment, and were divided into 4 experimental groups, with 8 mice in each group. The day of first administration was recorded as D1, a second day of administration was recorded as D2, and so on. All animals were administered through single daily intraperitoneal injection for 24 consecutive days.
During the experiment, a long diameter and a short diameter of the tumors in all the animals were measured daily. And a tumor volume (mm^3) was calculated and a formula was as follows: Tumor volume=0.5236×long diameter×short diameter×short diameter.

Data set [4] can be described thus: Distribution of BS in brain tissue of ICR mice after intraperitoneal injection, ICP-MS. The format is in vivo. To be noted: female, mouse, ip, intraperitoneal injection 90 mg/kg. How it is done: The distribution of BS in mouse brain tissue was examined as follows: Brain glioma is located in the skull and has a special lesion location. Thus, it is critical whether a drug can cross the blood-brain barrier and act at the lesion site. In order to detect whether BS can reach brain tissue through the blood-brain barrier, female six-week-old ICR mice were selected for the study. The mice were intraperitoneally injected with 90 mg/kg of BS, and brain tissues before administration and brain tissues at 0.5 h, 1 h, 2 h and 3 h after administration were taken for ICP-MS detection. The BS content per gram of brain tissue was calculated by detecting the selenium content per gram of brain tissue.

Data set [5] in a line: Distribution of BS in brain tissue of U87 nude mice by ICP-MS (selenium content). The format is in vivo. Particulars: Balb/c nude, mouse, BS 30 mg/kg, injection dosage form (intraperitoneal), after the experiment, calculated from selenium content. How it is done:
as §1, with “A portion of tumor tissue was taken and stored in liquid nitrogen for RNA and protein extraction. Another portion of tumor tissue was placed in a tissue fixative solution for fixation.” left out
Brain tissues of the mice after the experiment of BS+TMZ gavage (90+10 mg/kg) and BS intraperitoneal injection (30 mg/kg) were taken and detected by ICP-MS. By detecting the selenium content per gram of brain tissue, the BS content per gram of brain tissue was calculated. […]

Data set [6] deals with U87 brain glioma subcutaneous model. In words: Gavage administration experiment of U87 brain glioma subcutaneous model in Balb/c nude mice. The format is in vivo. To be noted: BS 90 mg/kg, oral administration (i.g., q.d.), 11 days. How it is done:
After 2 days of animal acclimation, qualified animals were retained and randomized into 6 groups, with 7 animals in each group. Mice were inoculated subcutaneously in right axillas with U87 cells at 2×10^6/mouse. Administration was started to be performed 12 days after inoculation, which was day 0 of treatment. Administration was performed for a total of 11 days.
A drug treatment regimen was as follows: Blank control group (0.5% CMC-Na, i.g., q.d.); TMZ group (30 mg/kg, i.g., q.d.); BSL group (10 mg/kg, i.g., q.d.); BSM group (90 mg/kg, i.g., q.d.); BSH group (180 mg/kg, i.g., q.d.); and BSM+TMZ group (30 mg/kg of TMZ, 90 mg/kg of BS, i.g., q.d.).
The general condition of the animals and the time of tumor occurrence were recorded daily during the experiment, a long diameter and a short diameter of tumors in the mice were recorded daily, and a tumor volume was calculated according to a formula: long diameter×(short diameter)^2×0.5236, and a body weight of the animals were measured every 3 days. After 18 days of administration, anesthesia was performed with chloral hydrate, and eyeballs were removed for blood collection. […] Distribution of the Se content in brain tissue was detected by Inductively coupled plasma-Mass Spectrometry (ICP-MS).

Data set [7] can be described thus: Body weight and clinical observation of NPG mice during administration. The format is in vivo. Particulars: BS 30 and 90 mg/kg, intraperitoneal injection. How it is done:
All animals were observed once a day during the experiment period. The observation content included death or dying, feces, a feeding status, a mental status, and behavioral activities, etc. If any abnormal situation was found, it was recorded in time. All animals were weighed once before grouping, three times per week after administration, and once before euthanasia.
No clinical abnormal symptoms or animal deaths due to drug toxicity were observed during this experiment.

Data set [8] in a line: Solubility of butaselen in water. The format is physicochemical.
Setting [9] is: TMZ 10 mg/kg, intraperitoneal, experiment in this group ended early on day 12.
The mark [10] stands for this setting: BS 30 mg/kg, intraperitoneal injection, q.d., 18 days, end of experiment.
The mark [11] stands for this setting: BS 30 mg/kg, intraperitoneal, end of experiment.

These results are taken from patent EP4620468A1, “BUTASELEN-CYCLODEXTRIN INCLUSION COMPLEX, PHARMACEUTICAL COMPOSITION, METHOD FOR PREPARING SAME, AND USE THEREOF” (Shanghai Yuanxi Medicine Corp., priority 2022, dated 2024).

Broadly, the solubility is how much of the substance goes into solution per volume. A low value points to a poorly soluble substance.

Structures are written as SMILES. Converted amounts (≈) assume the structure as drawn.

`Cn1nnc2c(C(N)=O)ncn2c1=O` [TMZ, temozolomide, reference compound]: the “body weight of the mice” value in data set [1] (TMZ group (30 mg/Kg as printed), U87 tumor-bearing nude mice, group ended on day 12) is listed as “significantly decreased”. Also, in data set [2] (setting [9]), the “Tumor volume (mm^3)” value was 343.23±245.20 mm^3 and the “Tumor weight” value is 0.19 ± 0.08 g. For the same molecule, the “tumor sizes at the end of the experiment” value in data set [3] (TMZ 5 mg/kg i.p. q.d.) stood at 2693.29±1682.23. Besides, in data set [3] (TMZ group (5 mg/kg i.p.)), the “tumor volume inhibition rate” value stood at 27.82%.
In data set [4] (0.5 h after administration), `O=c1c2ccccc2[se]n1CCCCn1[se]c2ccccc2c1=O` [BS, butaselen] gave a concentration at 0.5 h of 439 ng/g. Moreover, the concentration at 1 h in data set [4] (1 h after administration) was 372 ng/g. Also, the concentration at 2 h in data set [4] (2 h after administration (peak)) was 528 ng/g. The concentration at 3 h in data set [4] (3 h after administration) stood at 419 ng/g. For the same molecule, the “toxic and side effects on tumor-bearing nude mice” value in data set [1] (BS group, BS+TMZ (A) and (B) groups, normal diet, activities, mental status) is “no obvious toxic and side effects”. In addition, in data set [5], the concentration at 18 days is 121 ng/g. Moreover, the “Tumor volume (mm^3)” value is on record as 122.05±33.15 mm^3 in data set [6] and 105.18±66.62 mm^3 in data set [2] (setting [10]). Moreover, the “Volume inhibition rate (%)” value in data set [6] is 78.87%; in data set [2] (setting [10]), 81.12%. The “toxic and side effects on the NPG mice” value in data set [7] is “no obvious toxic and side effects”. Moreover, the weight loss entry in data set [7] (NPG mice) was “no significant weight loss”. Besides, the “Tumor weight” value in data set [2] (setting [11]) was found to be 0.13 ± 0.08 g. Further, the “Weight inhibition rate (%)” value in data set [2] (setting [11]) came out at 66.67%. In data set [8], this molecule had a solubility of around 0.15 µg/mL (≈ 0.333 µM). Also, the “tumor sizes at the end of the experiment” value in data set [3] (BS 30 mg/kg i.p. q.d.) was 4593.83±2725.69; in data set [3] (BS 90 mg/kg i.p. q.d.), 2999.76±2191.03. Besides, the “tumor volume inhibition rate” value was 35.19% in data set [3] (high-dose BS group (90 mg/kg i.p.)) and -10.54% in data set [3] (low-dose BS group (30 mg/kg i.p.)).
